Where a name gives a salt, the structure may show the parent alone.
What was measured:
MTT cytotoxicity assay = format: cell-based, human; details: human, SH-SY5Y neuroblastoma cells; read-out: Cell Cytotoxicity Log IC50 (converted)
Description: (§1) A MTT assay was used to assess the cytotoxicity of either the individual drugs or dual-drug combinations using the SH-SY5Y neuroblastoma cell line. SH-SY5Y cells were seeded in 96-well plates (passage #15) at a cell density of 3 × 10^4 cells/well in DMEM containing 10% FBS. […] Plates were incubated for 4 h at 37 °C, before removal of the media and replacement with 1:1 (v/v) isopropanol:DMSO. […] Cell viability of cells treated with drugs was quantified by comparison to untreated control cells, set at 100% viability.
(§2) Values generated for IC50 and for the dual-drug CI were determined using CompuSyn software. […] For cell viability assays, a one-way ANOVA was performed to determine significant changes after treatments compared to control cell viability, set at 100%.

[1] = tested on: SH-SY5Y neuroblastoma cells; test: MTT cytotoxicity assay; format: cell-based, human; details: SH-SY5Y, MTT, 48 h; significant change from control
Description: as §1, §2

[2] = biological target: T1, Torpedo californica acetylcholinesterase (tcAChE) (Tetronarce californica, UniProt P04058); test: biochemical; details: individual drug; Torpedo californica AChE (tc); read-out: Acetycholinesterase Inhibition (IC50)
T1 construct: purchased Sigma-Aldrich (Poole, UK)
Description: A microtiter plate version of the Ellman’s assay was used to determine the activity of human and Torpedo californica acetylcholinesterase enzymes [27]. Assays were undertaken in the presence of either individual drugs or two-drug combinations. Each assay data point within a 96-well plate contained 40 µL of 0.01 M DTNB, 46 µL of 0.1 M (pH 8.0) phosphate buffer, 2 µL of 0.075 M ATCI substrate, and 10 µL of drug or dual-drug combination. […] Enzymatic cleavage of the ATCI substrate was initiated by addition of 2 µL of 0.5 U/mL AChE enzyme. […] Under these assay conditions, a final color change was reached (results not included) such that an end-point assay measurement was taken [29].
These scoping experiments enabled us to quantify an approximate IC50 for subsequent dose-response experiments. […] These concentrations were also used for dual-drug combination experiments. Experiments undertaken in the absence of inhibitor were designated as 100% enzymatic activity. Assays were performed in duplicates from which a mean was calculated.
Percentage inhibition of AChE from in vitro assays in response to application of individual or dual-drug ChEIs were calculated using CompuSyn software (http://www.combosyn.com/index.html). […]

[3] = compared to tacrine or berberine; cited from earlier work

T1 sequence (P04058 22-586): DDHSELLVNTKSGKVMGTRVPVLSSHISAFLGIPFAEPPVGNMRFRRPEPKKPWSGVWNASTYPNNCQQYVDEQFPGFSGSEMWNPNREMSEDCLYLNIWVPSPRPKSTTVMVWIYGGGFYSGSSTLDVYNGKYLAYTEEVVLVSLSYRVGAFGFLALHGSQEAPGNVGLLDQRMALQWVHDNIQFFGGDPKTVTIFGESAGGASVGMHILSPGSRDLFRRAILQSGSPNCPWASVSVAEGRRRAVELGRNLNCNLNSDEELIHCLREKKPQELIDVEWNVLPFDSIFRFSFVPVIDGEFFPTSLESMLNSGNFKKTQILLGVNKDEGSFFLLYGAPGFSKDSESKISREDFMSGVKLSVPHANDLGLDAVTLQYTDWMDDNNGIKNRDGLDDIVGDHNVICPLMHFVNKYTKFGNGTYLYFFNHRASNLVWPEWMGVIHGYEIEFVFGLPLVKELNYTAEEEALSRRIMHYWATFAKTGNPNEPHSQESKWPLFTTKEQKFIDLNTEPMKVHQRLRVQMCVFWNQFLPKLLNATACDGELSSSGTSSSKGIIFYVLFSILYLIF

Row | SMILES | IC50 at 48 h (MTT cytotoxicity assay) | concentration needed to reduce cell viability (induce toxicity) [1] | IC50 [2] | oral bioavailability [3]
1 | COc1ccc2cc3[n+](cc2c1OC)CCc1cc2c(cc1-3)OCO2 [Ber, berberine hydrochloride] | 955 µg/mL | ≥ 1 µM | 3.23 µM | 
2 | COc1ccc2c3c1O[C@H]1C[C@@H](O)C=C[C@@]31CCN(C)C2 [Gal, galantamine hydrobromide] | 12600 µg/mL | ≥ 100 µM |  | relatively high
3 | Nc1c2c(nc3ccccc13)CCCC2 [Tac, tacrine hydrochloride] | 339 µg/mL | at least 10 µM |  | 
